{"source": "patent US5030760A", "about": "“Tetrahydrophthalimides, and their production and use” (Sumitomo Chemical Company, Ltd., priority 1981, dated 1991); further: ranges in brackets are in %", "key": {"barnyardgrass": {"test_system": "barnyardgrass", "assay": "Test Example 6, paddy pot perfusion, herbicidal activity", "assay_type": "in vivo, Echinochloa crus-galli", "details": "3 weeks, dry weight", "method": "(§1) The application of the tetrahydrophthalimides (I) as herbicides will be illustratively shown in the following Examples wherein the phytotoxicity to cultivated plants and the herbicidal activity on weeds were evaluated as follows: the aerial parts of the test plants were cut off and weighed (fresh weight); the percentage of the fresh weight of the treated plant to that of the untreated plant was calculated with the latter fresh weight taken as 100; and the crop damage and the herbicidal activity were evaluated by the standard given in the table below. The rating values of phytotoxicity, 0 and 1, and those of herbicidal effect, 5 and 4, are generally regarded as satisfactory to protect cultivated plants and control weeds, respectively. The rating values in the paddy field test alone were calculated from the dry weight of the test plants.\n(§2) Wagner's pots (1/5000 are) were filled with paddy field soil containing the seeds of broad-leaved weeds (e.g. monochoria, false pimpernel, toothcup) and the seeds of barnyardgrass and hardstem bulrush, and water was poured therein until the depth of water became 4 cm. Rice seedlings of the 3.5-leaf stage and the tubers of arrowhead were transplanted therein and grown for 2 days in a greenhouse. A designed amount of the test compound formulated in an emulsifiable concentrate according to Preparation Example 2 was applied to the pots by perfusion. Thereafter, the test plants were grown for an additional 3 weeks in the greenhouse, and herbicidal activity and phytotoxicity were examined. In this treatment, the emulsifiable concentrate was dispersed in water for application at a perfusion volume of 10 liters per are."}, "hemp sesbania": {"test_system": "hemp sesbania", "assay": "Test Example 5, spraying over the top, herbicidal activity", "assay_type": "in vivo, Sesbania exaltator", "details": "sprayed over the top, 20 days", "method": "as §1\n(§3) Plastic trays (35 cm×25 cm×15 cm) were filled with upland field soil, and the seeds of tall morningglory, velvetleaf, jimsonweed, sicklepod, hemp sesbania, prickly side, Johnsongrass, green foxtail and large crabgrass and the seeds of soybean were sown therein. A designed amount of the test compound formulated into a wettable powder according to Preparation Example 1 and dispersed in water was sprayed over the top by means of a small hand sprayer at a spray volume of 5 liters per are. After the spraying, the test plants were grown in greenhouse for 20 days, and phytotoxicity and herbicidal activity were examined."}, "sicklepod": {"test_system": "sicklepod", "assay": "Test Example 5, spraying over the top, herbicidal activity", "assay_type": "in vivo, Cassia obtusifolia", "details": "sprayed over the top, 20 days", "method": "as §1, §3"}, "green foxtail [1]": {"test_system": "green foxtail", "assay": "Test Example 5, spraying over the top, herbicidal activity", "assay_type": "in vivo, Setaria viridis", "details": "sprayed over the top, 20 days", "method": "as §1, §3"}, "prickly sida": {"test_system": "prickly sida", "assay": "Test Example 5, spraying over the top, herbicidal activity", "assay_type": "in vivo, Sida spinosa", "details": "sprayed over the top, 20 days", "method": "as §1, §3"}, "corn": {"test_system": "corn", "assay": "Test Example 2, field foliar treatment, phytotoxicity to corn", "assay_type": "in vivo", "details": "3 weeks", "method": "as §1\n(§4) Seeds of corn and broad-leaved weeds such as cocklebur, common purslane and tall morningglory were sown in the field as previously laid up in ridges, each ridge having an upper width of 1 m. At the time when the corn grew up to the 6-leaf stage and the broad-leaved weeds up to 2 to 5-leaf stages, a designed amount of the test compound formulated into an emulsifiable concentrate according to Preparation Example 2 and dispersed in water was sprayed to the foliage of the test plants with three replications over the top by means of a small hand sprayer at a spray volume of 5 liters per are. After cultivation for 3 weeks, herbicidal activity and phytotoxicity were examined."}, "tall morningglory [2]": {"test_system": "tall morningglory", "assay": "Test Example 3, soil surface spraying, herbicidal activity", "assay_type": "in vivo, Ipomoea purpurea", "details": "20 days", "method": "as §1\nPlastic trays (35 cm×25 cm×15 cm) were filled with upland field soil, and the seeds of tall morningglory, velvetleaf and sicklepod and the seeds of corn were sown therein. A designed amount of the test compounds formulated into a wettable powder according to Preparation Example 1 was dispersed in water and applied by spraying at a spray volume of 5 liters per are to the whole surface of the soil. After the spraying, the test plants were placed in a greenhouse and grown for 20 days, and herbicidal activity and phytotoxicity were examined."}, "tall morningglory [3]": {"test_system": "tall morningglory", "assay": "Test Example 2, field foliar treatment, herbicidal activity", "assay_type": "in vivo, Ipomoea purpurea", "details": "3 weeks", "method": "as §1, §4"}, "arrowhead": {"test_system": "arrowhead", "assay": "Test Example 6, paddy pot perfusion, herbicidal activity", "assay_type": "in vivo, Sagittaria pygmaea", "details": "3 weeks, dry weight", "method": "as §1, §2"}, "large crabgrass": {"test_system": "large crabgrass", "assay": "Test Example 5, spraying over the top, herbicidal activity", "assay_type": "in vivo, Digitaria sanguinalis", "details": "sprayed over the top, 20 days", "method": "as §1, §3"}, "green foxtail [4]": {"test_system": "green foxtail", "assay": "Test Example 4, pre-emergence treatment, herbicidal activity", "assay_type": "in vivo, Setaria viridis", "details": "20 days", "in_short": "(§5)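 Pre-emergence soil spray: EC formulation diluted in water with spreader, 5 liters per are, applied right after sowing in upland soil. Greenhouse, 20 d. Readout: aerial fresh wt as % untreated control, scored on a rating scale.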"}, "velvetleaf": {"test_system": "velvetleaf", "assay": "Test Example 4, pre-emergence treatment, herbicidal activity", "assay_type": "in vivo, Abutilon theophrasti", "details": "20 days", "in_short": "as §5"}, "wild oat": {"test_system": "wild oat", "assay": "Test Example 1, foliar treatment, herbicidal activity", "assay_type": "in vivo, Avena fatua", "details": "3 weeks", "in_short": "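Crops and weeds sown in upland soil, greenhouse-grown 2 weeks, then sprayed on foliage with compound as emulsifiable concentrate in water plus spreading agent at 5 liters per are. Scored 3 weeks later from aerial fresh weight as percent of untreated plants, converted to a rating scale.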"}, "slender spikerush": {"test_system": "slender spikerush", "assay": "Test Example 7, flooded paddy pot dripping, herbicidal activity", "assay_type": "in vivo, Eleocharis acicularis", "details": "3 weeks", "method": "as §1\n(§6) Wagner's pots (1/5000 are) were filled with paddy field soil and water was poured therein to make a flooded condition. Rice seedlings of the 3-leaf stage were transplanted and tubers of slender spikerush and arrowhead and the seeds of barnyardgrass, monochoria and broad-leaved weed were sowed therein and grown for 5 days. When germination occurs, a designed amount of the test compound formulated into an emulsifiable concentrate according to Preparation Example 2 was applied to the pots by dripping. The test plants were grown for a further 3 weeks, and herbicidal activity and phytotoxicity were examined. The herbicidal activity was evaluated in figures ranging from 0 to 5. The phytotoxicity to the crop plants was also indicated on the same standard as that of the herbicidal activity."}, "broad-leaved weed": {"test_system": "broad-leaved weed", "assay": "Test Example 7, flooded paddy pot dripping, herbicidal activity", "assay_type": "in vivo", "details": "3 weeks", "method": "as §1, §6"}}}
{"smiles": "CC(C)Oc1cc(N2C(=O)C3=C(CCCC3)C2=O)c(Cl)cc1Cl", "note": "[B, 2,4-dichloro-5-isopropoxyphenyltetrahydrophthalimide, reference compound]", "values": [{"measurement": "Herbicidal activity, Barnyardgrass", "setting": "barnyardgrass; 1.25 g/are", "result": "1 (41-60)"}, {"measurement": "Herbicidal activity, Barnyardgrass", "setting": "barnyardgrass; 2.5 g/are", "result": "3 (11-20)"}, {"measurement": "Herbicidal activity, Hemp sesbania", "setting": "hemp sesbania; 10 g/are", "result": "1 (41-60)"}, {"measurement": "Herbicidal activity, Hemp sesbania", "setting": "hemp sesbania; 20 g/are", "result": "2 (21-40)"}, {"measurement": "Herbicidal activity, Sicklepod", "setting": "sicklepod; 10 g/are", "result": "0 (61-100)"}, {"measurement": "Herbicidal activity, Sicklepod", "setting": "sicklepod; 20 g/are", "result": "2 (21-40)"}, {"measurement": "Herbicidal activity, Green foxtail", "setting": "green foxtail [1]; 10 g/are", "result": "3 (11-20)"}, {"measurement": "Herbicidal activity, Green foxtail", "setting": "green foxtail [1]; 20 g/are", "result": "4 (1-10)"}, {"measurement": "Herbicidal activity, Prickly sida", "setting": "prickly sida; 10 g/are", "result": "3 (11-20)"}, {"measurement": "Herbicidal activity, Prickly sida", "setting": "prickly sida; 20 g/are", "result": "4 (1-10)"}, {"measurement": "Phytotoxicity, Corn", "setting": "corn; 0.63 g/are", "result": "1 (90-99)"}, {"measurement": "Phytotoxicity, Corn", "setting": "corn; 1.25 g/are", "result": "1 (90-99)"}, {"measurement": "Herbicidal activity, Tall morningglory", "setting": "tall morningglory [2]; 5 g/are", "result": "0 (61-100)"}, {"measurement": "Herbicidal activity, Tall morningglory", "setting": "tall morningglory [2]; 10 g/are", "result": "0 (61-100)"}, {"measurement": "Herbicidal activity, Tall morningglory", "setting": "tall morningglory [3]; 0.63 g/are", "result": "3 (11-20)"}, {"measurement": "Herbicidal activity, Tall morningglory", "setting": "tall morningglory [3]; 1.25 g/are", "result": "4 (1-10)"}, {"measurement": "Herbicidal activity, Arrowhead", "setting": "arrowhead; 1.25 g/are", "result": "0 (61-100)"}, {"measurement": "Herbicidal activity, Arrowhead", "setting": "arrowhead; 2.5 g/are", "result": "0 (61-100)"}, {"measurement": "Herbicidal activity, Large crabgrass", "setting": "large crabgrass; 10 g/are", "result": "3 (11-20)"}, {"measurement": "Herbicidal activity, Large crabgrass", "setting": "large crabgrass; 20 g/are", "result": "4 (1-10)"}, {"measurement": "Herbicidal activity, Green foxtail", "setting": "green foxtail [4]; 5 g/are", "result": "0 (61-100)"}, {"measurement": "Herbicidal activity, Green foxtail", "setting": "green foxtail [4]; 20 g/are", "result": "0 (61-100)"}, {"measurement": "Herbicidal activity, Velvetleaf", "setting": "velvetleaf; 5 g/are", "result": "1 (41-60)"}, {"measurement": "Herbicidal activity, Velvetleaf", "setting": "velvetleaf; 20 g/are", "result": "3 (11-20)"}, {"measurement": "Herbicidal activity, Wild cat", "setting": "wild oat; 1.25 g/are", "result": "0 (61-100)"}, {"measurement": "Herbicidal activity, Wild cat", "setting": "wild oat; 5 g/are", "result": "1 (41-60)"}]}
{"smiles": "O=C1C2=C(CCCC2)C(=O)N1c1ccc(Cl)cc1F", "note": "[A, 2-fluoro-4-chlorophenyltetrahydrophthalimide, reference compound]", "values": [{"measurement": "Herbicidal activity, Barnyardgrass", "setting": "barnyardgrass; 1.25 g/are", "result": "1 (41-60)"}, {"measurement": "Herbicidal activity, Barnyardgrass", "setting": "barnyardgrass; 2.5 g/are", "result": "2 (21-40)"}, {"measurement": "Herbicidal activity, Hemp sesbania", "setting": "hemp sesbania; 10 g/are", "result": "3 (11-20)"}, {"measurement": "Herbicidal activity, Hemp sesbania", "setting": "hemp sesbania; 20 g/are", "result": "5 (0)"}, {"measurement": "Herbicidal activity, Sicklepod", "setting": "sicklepod; 10 g/are", "result": "1 (41-60)"}, {"measurement": "Herbicidal activity, Sicklepod", "setting": "sicklepod; 20 g/are", "result": "2 (21-40)"}, {"measurement": "Herbicidal activity, Green foxtail", "setting": "green foxtail [1]; 10 g/are", "result": "5 (0)"}, {"measurement": "Herbicidal activity, Green foxtail", "setting": "green foxtail [1]; 20 g/are", "result": "5 (0)"}, {"measurement": "Herbicidal activity, Prickly sida", "setting": "prickly sida; 10 g/are", "result": "5 (0)"}, {"measurement": "Herbicidal activity, Prickly sida", "setting": "prickly sida; 20 g/are", "result": "5 (0)"}, {"measurement": "Phytotoxicity, Corn", "setting": "corn; 0.63 g/are", "result": "0 (100)"}, {"measurement": "Phytotoxicity, Corn", "setting": "corn; 1.25 g/are", "result": "1 (90-99)"}, {"measurement": "Herbicidal activity, Slender spikerush", "setting": "slender spikerush; 2.5 g/are", "result": "2 (30-49)"}, {"measurement": "Herbicidal activity, Slender spikerush", "setting": "slender spikerush; 5 g/are", "result": "3 (50-69)"}, {"measurement": "Herbicidal activity, Slender spikerush", "setting": "slender spikerush; 10 g/are", "result": "4 (70-89)"}, {"measurement": "Herbicidal activity, Tall morningglory", "setting": "tall morningglory [2]; 5 g/are", "result": "0 (61-100)"}, {"measurement": "Herbicidal activity, Tall morningglory", "setting": "tall morningglory [2]; 10 g/are", "result": "0 (61-100)"}, {"measurement": "Herbicidal activity, Tall morningglory", "setting": "tall morningglory [3]; 0.63 g/are", "result": "2 (21-40)"}, {"measurement": "Herbicidal activity, Tall morningglory", "setting": "tall morningglory [3]; 1.25 g/are", "result": "2 (21-40)"}, {"measurement": "Herbicidal activity, Arrowhead", "setting": "arrowhead; 1.25 g/are", "result": "0 (61-100)"}, {"measurement": "Herbicidal activity, Arrowhead", "setting": "arrowhead; 2.5 g/are", "result": "0 (61-100)"}, {"measurement": "Herbicidal activity, Large crabgrass", "setting": "large crabgrass; 10 g/are", "result": "5 (0)"}, {"measurement": "Herbicidal activity, Large crabgrass", "setting": "large crabgrass; 20 g/are", "result": "5 (0)"}, {"measurement": "Herbicidal activity, Green foxtail", "setting": "green foxtail [4]; 2.5 g/are", "result": "1 (41-60)"}, {"measurement": "Herbicidal activity, Green foxtail", "setting": "green foxtail [4]; 10 g/are", "result": "4 (1-10)"}, {"measurement": "Herbicidal activity, Velvetleaf", "setting": "velvetleaf; 2.5 g/are", "result": "4 (1-10)"}, {"measurement": "Herbicidal activity, Velvetleaf", "setting": "velvetleaf; 10 g/are", "result": "5 (0)"}, {"measurement": "Herbicidal activity, Wild cat", "setting": "wild oat; 1.25 g/are", "result": "0 (61-100)"}, {"measurement": "Herbicidal activity, Wild cat", "setting": "wild oat; 5 g/are", "result": "1 (41-60)"}, {"measurement": "Herbicidal activity, Broad-leaved weed", "setting": "broad-leaved weed; 2.5 g/are", "result": "4 (70-89)"}, {"measurement": "Herbicidal activity, Broad-leaved weed", "setting": "broad-leaved weed; 5 g/are", "result": "5 (90-100)"}, {"measurement": "Herbicidal activity, Broad-leaved weed", "setting": "broad-leaved weed; 10 g/are", "result": "5 (90-100)"}]}
